The values below come from patent US12247010B2, “Tubulin inhibitors” (LIN BIOSCIENCE PTY LTD., priority 2017, dated 2025).

In the assay the test system is U87MG cells. The experiment in a line: Cytotoxicity assay (cell viability, CellTiter 96 Aqueous MTS). Type of assay: cell-based. The following applies: Homo sapiens, U-87 MG, 72 h, 72 hours incubation, starting concentration 50 uM, 9 point half log dilution, average where tested repeatedly. How it is done:
Example 3: Cytotoxicity Assay
U87MG cells were plated at a density of 7×10^3 cells/well and allowed to seed overnight. Cells were then treated with compounds from Table 1 or CMPD-1 (4-(2′-fluoro-[1,1′-biphenyl]-4-yl)-N-(4-hydroxyphenyl)butanamide as a positive control) were added to cells at a starting concentration of 50 uM, with a 9 point half log dilution, and incubated for 72 hours prior to viability determination. IC50 values were calculated from cell viability as measured using the CellTiter 96® Aqueous MTS reagent from Promega©, and the results are shown in Table 2.

In turn, `Cn1cnc(C(=O)NCCCc2ccc(-c3ccccc3F)cc2)c1` [Compound 88, N-(3-(2′-fluoro-[1,1′-biphenyl]-4-yl)propyl)-1-methyl-1H-imidazole-4-carboxamide] displayed an IC50 of over 5 µM.

In turn, `Cc1cc(C(=O)NCCCc2ccc(-c3ccccc3F)cc2)n(C)n1` [Compound 89, N-(3-(2′-fluoro-[1,1′-biphenyl]-4-yl)propyl)-1,3-dimethyl-1H-pyrazole-5-carboxamide] came in with an IC50 of under 0.5 µM.

Consider `Cc1cc(C(=O)NCCCc2ccc(-c3ccccc3F)cc2)no1` [Compound 90, N-(3-(2′-fluoro-[1,1′-biphenyl]-4-yl)propyl)-5-methylisoxazole-3-carboxamide], for which the half-maximal inhibitory concentration (IC50) was under 0.5 µM.

Take `O=C(NCCCc1ccc(-c2ccccc2F)cc1)c1ccc2c(c1)OCCO2` [Compound 91, N-(3-(2′-fluoro-[1,1′-biphenyl]-4-yl)propyl)-2,3-dihydrobenzo[b] [1,4]dioxine-6-carboxamide]: the IC50 was over 5 µM.

`Cn1cnc2cc(C(=O)NCCCc3ccc(-c4ccccc4F)cc3)cnc21` [Compound 95, N-(3-(2′-fluoro-[1,1′-biphenyl]-4-yl)propyl)-3-methyl-3H-imidazo[4,5-b]pyridine-6-carboxamide]: the IC50 is under 0.5 µM.

Take `Cc1ccc(C(=O)NCCCc2ccc(-c3ccccc3F)cc2)c(C)n1` [Compound 99, N-(3-(2′-fluoro-[1,1′-biphenyl]-4-yl)propyl)-2,6-dimethylnicotinamide]: the IC50 lay within 1 to 5 µM.

In turn, `Cc1nc2cc(C(=O)NCCCc3ccc(-c4ccccc4F)cc3)ccc2[nH]1` [Compound 100, N-(3-(2′-fluoro-[1,1′-biphenyl]-4-yl)propyl)-2-methyl-1H-benzo[d]imidazole-5-carboxamide] displayed an IC50 of over 5 µM.

For `O=C(Cc1noc2ccccc12)NCCCc1ccc(-c2ccccc2F)cc1` [Compound 102, 2-(benzo[d]isoxazol-3-yl)-N-(3-(2′-fluoro-[1,1′-biphenyl]-4-yl)propyl)acetamide], the IC50 is over 5 µM.

Turning to `Nc1ccc(C(=O)NCCCc2ccc(-c3ccccc3F)cc2)cn1` [Compound 105, 6-amino-N-(3-(2′-fluoro-[1,1′-biphenyl]-4-yl)propyl)nicotinamide], the half-maximal inhibitory concentration (IC50) was under 0.5 µM.

`Cn1nccc1C(=O)NCCCc1ccc(-c2ccccc2F)cc1` [Compound 106, N-(3-(2′-fluoro-[1,1′-biphenyl]-4-yl)propyl)-1-methyl-1H-pyrazole-5-carboxamide]: the IC50 was in the range of 0.501 to 1 µM.

In turn, `O=C(NCCCc1ccc(-c2ccccc2F)cc1)C(F)(F)c1ccccc1` [Compound 108, 2,2-difluoro-N-(3-(2′-fluoro-[1,1′-biphenyl]-4-yl)propyl)-2-phenylacetamide] had an IC50 of under 0.5 µM.

Molecule `CCn1nc(C)cc1C(=O)NCCCc1ccc(-c2ccccc2F)cc1` [Compound 109, 1-ethyl-N-(3-(2′-fluoro-[1,1′-biphenyl]-4-yl)propyl)-3-methyl-1H-pyrazole-5-carboxamide] yielded an IC50 of 0.501 to 1 µM.

On to `COc1ccc(CC(=O)NCCCc2ccc(-c3ccccc3F)cc2)cc1OC` [Compound 110, 2-(3,4-dimethoxyphenyl)-N-(3-(2′-fluoro-[1,1′-biphenyl]-4-yl)propyl)acetamide], for which the IC50 is over 5 µM.

For `O=C(NCCCc1ccc(-c2ccccc2F)cc1)c1ccno1` [Compound 111, N-(3-(2′-fluoro-[1,1′-biphenyl]-4-yl)propyl)isoxazole-5-carboxamide], the IC50 was over 5 µM.

Molecule `CCOc1ccc(CC(=O)NCCCc2ccc(-c3ccccc3F)cc2)cc1` [Compound 112, 2-(4-ethoxyphenyl)-N-(3-(2′-fluoro-[1,1′-biphenyl]-4-yl)propyl)acetamide] had an IC50 of 1 to 5 µM.

For `O=C(NCCCc1ccc(-c2ccccc2F)cc1)c1cc[nH]n1` [Compound 113, N-(3-(2′-fluoro-[1,1′-biphenyl]-4-yl)propyl)-1H-pyrazole-3-carboxamide], the IC50 is over 5 µM.

Molecule `COc1ccc(CC(=O)NCCCc2ccc(-c3ccccc3F)cc2)c(OC)c1` [Compound 114, 2-(2,4-dimethoxyphenyl)-N-(3-(2′-fluoro-[1,1′-biphenyl]-4-yl)propyl)acetamide] came in with an IC50 of over 5 µM.

Molecule `O=C(NCCCc1ccc(-c2ccccc2F)cc1)c1c[nH]c2ccccc12` [Compound 117, N-(3-(2′-fluoro-[1,1′-biphenyl]-4-yl)propyl)-1H-indole-3-carboxamide] gave an IC50 of over 5 µM.

As for `O=C(NCCCc1ccc(-c2ccccc2F)cc1)c1cc[nH]c1` [Compound 118, N-(3-(2′-fluoro-[1,1′-biphenyl]-4-yl)propyl)-1H-pyrrole-3-carboxamide], the IC50 was over 5 µM.

On to `O=C(Cc1ccc(OC(F)(F)F)cc1)NCCCc1ccc(-c2ccccc2F)cc1` [Compound 120, N-(3-(2′-fluoro-[1,1′-biphenyl]-4-yl)propyl)-2-(4-(trifluoromethoxy)phenyl)acetamide], for which the IC50 lay in the range of 0.501 to 1 µM.

For `CC(=O)Nc1ccc(C(=O)NCCCc2ccc(-c3ccccc3F)cc2)cn1` [Compound 121, 6-acetamido-N-(3-(2′-fluoro-[1,1′-biphenyl]-4-yl)propyl)nicotinamide], the IC50 lay within 1 to 5 µM.

`O=C(NCCCc1ccc(-c2ccccc2F)cc1)c1ccc2nccnc2c1` [Compound 123, N-(3-(2′-fluoro-[1,1′-biphenyl]-4-yl)propyl)quinoxaline-6-carboxamide] showed an IC50 of over 5 µM.

`O=C(Cn1ccnc1)NCCCc1ccc(-c2ccccc2F)cc1` [Compound 124, N-(3-(2′-fluoro-[1,1′-biphenyl]-4-yl)propyl)-2-(1H-imidazol-1-yl)acetamide]: the IC50 was over 5 µM.

`Cc1cc(C(=O)NCCCc2ccc(-c3ccccc3F)cc2)nn1C` [Compound 125, N-(3-(2′-fluoro-[1,1′-biphenyl]-4-yl)propyl)-1,5-dimethyl-1H-pyrazole-3-carboxamide] gave an IC50 of over 5 µM.

As for `COc1ccc(CC(=O)NCCCc2ccc(-c3ccccc3F)cc2)cc1F` [Compound 126, 2-(3-fluoro-4-methoxyphenyl)-N-(3-(2′-fluoro-[1,1′-biphenyl]-4-yl)propyl)acetamide], the half-inhibitory concentration (IC50) fell in the range of 1 to 5 µM.

Regarding `Cc1cc(C(=O)NCCCc2ccc(-c3ccccc3F)cc2)cc(C)c1O` [Compound 127, N-(3-(2′-fluoro-[1,1′-biphenyl]-4-yl)propyl)-4-hydroxy-3,5-dimethylbenzamide], the IC50 was over 5 µM.

Consider `Cc1cc(C(=O)NCCCc2ccc(-c3ccccc3F)cc2)on1` [Compound 128, N-(3-(2′-fluoro-[1,1′-biphenyl]-4-yl)propyl)-3-methylisoxazole-5-carboxamide], for which the 50% inhibitory concentration (IC50) is 0.501 to 1 µM.

Take `Cn1cncc1C(=O)NCCCc1ccc(-c2ccccc2F)cc1` [Compound 130, N-(3-(2′-fluoro-[1,1′-biphenyl]-4-yl)propyl)-1-methyl-1H-imidazole-5-carboxamide]: the IC50 was over 5 µM.

Regarding `O=C(NCCCc1ccc(-c2ccccc2F)cc1)c1cnco1` [Compound 131, N-(3-(2′-fluoro-[1,1′-biphenyl]-4-yl)propyl)oxazole-5-carboxamide], the half-maximal inhibitory concentration (IC50) is over 5 µM.

The molecule `Cc1cnc(C(=O)NCCCc2ccc(-c3ccccc3F)cc2)s1` [Compound 132, N-(3-(2′-fluoro-[1,1′-biphenyl]-4-yl)propyl)-5-methylthiazole-2-carboxamide] registered an IC50 of over 5 µM.
